Earlier results on two compounds are cited in patent US11478494B2, “Methods and substances for prevention and treatment of neurodegenerative diseases” (Locus IP Company, LLC, priority 2017, dated 2022).

*1 amine or outer side, *2 acyl side, *3 side chain or, on linkers, in order; H or OH if unused. Where a SMILES comes first, the peptide text is derived from it. Bridges are numbered along the chain shown (N, C = ends). [ ]: non-standard residue; d: D form. X1 = CC(C)CCCCCCCCC[C@H](CC(=O)[*:1])O[*:2]

The conditions of series [1]: surfactin administration.
The conditions of series [2]: oral administration.

Take `CC(C)CCCCCCCCC[C@@H]1CC(=O)N[C@@H](CCC(=O)O)C(=O)N[C@@H](CC(C)C)C(=O)N[C@H](CC(C)C)C(=O)N[C@@H](C(C)C)C(=O)N[C@@H](CC(=O)O)C(=O)N[C@H](CC(C)C)C(=O)N[C@@H](CC(C)C)C(=O)O1` [surfactin] (EL[dL]VD[dL]L; linker N-C via X1): the “concentration without any significant toxic effects” value in series [1] was no more than 25 µM. With sophorolipid [SLP], the “oral dose administered without toxicity” value in series [2] is reported as ≤ 5 grams/kg of body weight.
